Three compounds from the NIST ThermoML archive (doi:10.1021/je0505164) can be followed below.

For the series the following is noted: Liquid; for mass density: 298.15 K, 101.33 kPa; for Normal boiling temperature: Ebulliometric method (Recirculating still).

SMILES strings stand for the structures. Numbers after ± are expanded uncertainties.

For the compound `CC(C)O` [propan-2-ol], the mass density amounted to 780.8 ± 0.3 kg/m3 and the Normal boiling temperature stood at 82.24 ± 0.2 °C.
For the compound `CCCO` [propan-1-ol], the mass density came out at 799.6 ± 0.3 kg/m3 and the Normal boiling temperature worked out at 97.06 ± 0.2 °C.
For the compound `CCO` [ethanol], the mass density came to 785.1 ± 0.3 kg/m3 and the Normal boiling temperature came to 78.31 ± 0.2 °C.

As a reminder, the mass density is the mass of a sample divided by its volume.
